Test results published in ChEMBL document CHEMBL1201862, “PubChem BioAssay data set” (2004).
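Assay format: 96-well plates, 48-hour exposure. GI50 is the concentration that inhibits growth by half.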 Calls of active or inactive are those of the source. No stated cut-off is given here; in the data, active = GI50 up to about 1.1 µM and inactive = higher.

Experiments:
Assay in all cases: NCI anticancer screen, dose series, 48 h
SF-268 = system: SF-268
SF-295 = system: SF-295
SK-MEL-28 = system: SK-MEL-28
EKVX = system: EKVX
A498 = system: A498
MOLT-4 = system: MOLT-4
SK-MEL-5 = system: SK-MEL-5
HCC 2998 = system: HCC 2998
COLO 205 = system: COLO 205
KM12 = system: KM12
CAKI-1 = system: CAKI-1
UACC-257 = system: UACC-257
K562 = system: K562
SNB-19 = system: SNB-19
RPMI-8226 = system: RPMI-8226
OVCAR-4 = system: OVCAR-4
OVCAR-5 = system: OVCAR-5
SR = system: SR

Measured: GI50

CCOC(=O)c1cc(C(=O)O)c(=O)n2c1[nH]c1ccccc12
inactive: SF-268 61 µM | SF-295 > 100 µM | SK-MEL-28 26.2 µM | EKVX > 100 µM | A498 > 100 µM | MOLT-4 > 100 µM | SK-MEL-5 60.8 µM | HCC 2998 > 100 µM | COLO 205 > 100 µM | KM12 > 100 µM | CAKI-1 > 100 µM | UACC-257 > 100 µM | K562 > 100 µM | SNB-19 44.3 µM | RPMI-8226 46.3 µM | OVCAR-4 > 100 µM

O=C(O)C1=C(O)C(C(=O)O)C23CCCCCCCCCCC12C(C(=O)O)C(O)=C3C(=O)O (configuration not stated)
inactive: SF-268 > 100 µM | SF-295 > 100 µM | SK-MEL-28 > 100 µM | EKVX > 100 µM | MOLT-4 > 100 µM | SK-MEL-5 > 100 µM | OVCAR-5 > 100 µM | HCC 2998 > 100 µM | COLO 205 > 100 µM | KM12 > 100 µM | UACC-257 > 100 µM | K562 > 100 µM | SNB-19 > 100 µM | RPMI-8226 > 100 µM | SR > 100 µM

CC1(S)CC2C(CC1Sc1ccccc1)C2(C)C (configuration not stated)
inactive: SF-268 > 100 µM | SF-295 > 100 µM | SK-MEL-28 > 100 µM | EKVX > 100 µM | MOLT-4 > 100 µM | SK-MEL-5 8.67 µM | OVCAR-5 > 100 µM | HCC 2998 > 100 µM | COLO 205 > 100 µM | KM12 > 100 µM | UACC-257 > 100 µM | K562 > 100 µM | RPMI-8226 > 100 µM | OVCAR-4 > 100 µM

CC(=O)Nc1ccc(/C=c2\sc3nnc(/C=C/c4ccccc4)n3c2=O)cc1
inactive: SF-268 > 50 µM | SF-295 > 50 µM | SK-MEL-28 > 50 µM | EKVX > 50 µM | A498 > 50 µM | MOLT-4 > 50 µM | SK-MEL-5 > 50 µM | OVCAR-5 > 50 µM | HCC 2998 > 50 µM | COLO 205 > 50 µM | KM12 > 50 µM | CAKI-1 > 50 µM | UACC-257 > 50 µM | K562 > 50 µM | SNB-19 > 50 µM | RPMI-8226 > 50 µM | OVCAR-4 > 50 µM

CN(C)c1ncnc2c1Cc1ccccc1C(=O)N2C
inactive: SF-268 > 100 µM | SF-295 > 100 µM | SK-MEL-28 > 100 µM | EKVX > 100 µM | MOLT-4 > 100 µM | SK-MEL-5 > 100 µM | OVCAR-5 > 100 µM | HCC 2998 > 100 µM | COLO 205 > 100 µM | KM12 > 100 µM | CAKI-1 > 100 µM | UACC-257 > 100 µM | K562 > 100 µM | SNB-19 > 100 µM | RPMI-8226 > 100 µM | OVCAR-4 > 100 µM | SR > 100 µM

CCOC(=O)Cc1c(Cc2[nH]c(C(=O)OCc3ccccc3)c(CC(=O)OCC)c2CC(=O)OCC)[nH]c(C(=O)OCc2ccccc2)c1CC(=O)OCC
inactive: SF-268 > 100 µM | SF-295 > 100 µM | SK-MEL-28 > 100 µM | A498 > 100 µM | MOLT-4 > 100 µM | SK-MEL-5 > 100 µM | COLO 205 > 100 µM | CAKI-1 > 100 µM | K562 > 100 µM | SNB-19 > 100 µM | RPMI-8226 > 100 µM | SR > 100 µM

C/C(=N\NC(=S)N1CCC(C2CCN(C(=S)N/N=C(\C)c3ccccn3)CC2)CC1)c1ccccn1
inactive: SF-268 > 100 µM | SF-295 71.3 µM | SK-MEL-28 > 100 µM | EKVX > 100 µM | A498 > 100 µM | SK-MEL-5 62.4 µM | OVCAR-5 > 100 µM | HCC 2998 > 100 µM | COLO 205 > 100 µM | KM12 > 100 µM | CAKI-1 68.1 µM | UACC-257 > 100 µM | K562 > 100 µM | SNB-19 74.1 µM | RPMI-8226 > 100 µM | OVCAR-4 > 100 µM

S=C1NCCN1
inactive: SF-268 > 100 µM | SF-295 > 100 µM | SK-MEL-28 > 100 µM | EKVX > 100 µM | MOLT-4 > 100 µM | SK-MEL-5 > 100 µM | OVCAR-5 > 100 µM | COLO 205 > 100 µM | KM12 > 100 µM | CAKI-1 > 100 µM | UACC-257 > 100 µM | K562 > 100 µM | SNB-19 > 100 µM | RPMI-8226 > 100 µM | OVCAR-4 > 100 µM | SR > 100 µM

COc1ccc(C(=O)C(c2ccc(OC)cc2)C2(O)C(=O)Nc3ccccc32)cc1 (configuration not stated)
inactive: SF-268 > 100 µM | SF-295 > 100 µM | SK-MEL-28 > 100 µM | EKVX > 100 µM | MOLT-4 > 100 µM | KM12 > 100 µM | CAKI-1 > 100 µM | UACC-257 > 100 µM | K562 > 100 µM | SNB-19 > 100 µM | RPMI-8226 > 100 µM | SR > 100 µM

COC(=O)C1=C(C)N(NC(=O)c2ccccc2)C(C)(O)C12CCOC2=O (configuration not stated)
inactive: SF-268 > 100 µM | SF-295 > 100 µM | SK-MEL-28 > 100 µM | EKVX > 100 µM | A498 > 100 µM | MOLT-4 > 100 µM | OVCAR-5 > 100 µM | HCC 2998 > 100 µM | COLO 205 > 100 µM | KM12 > 100 µM | CAKI-1 > 100 µM | UACC-257 > 100 µM | K562 > 100 µM | SNB-19 > 100 µM | RPMI-8226 > 100 µM | OVCAR-4 > 100 µM

CCc1cccc(C)c1NC(=O)C(=O)CC(=O)c1ccc(Cl)s1
inactive: SF-268 > 100 µM | SF-295 > 100 µM | SK-MEL-28 > 100 µM | EKVX > 100 µM | A498 > 100 µM | MOLT-4 > 100 µM | HCC 2998 > 100 µM | KM12 > 100 µM | CAKI-1 > 100 µM | UACC-257 > 100 µM | K562 > 100 µM | SNB-19 > 100 µM | OVCAR-4 > 100 µM | SR > 100 µM

CN(C)CCS/C(=N\c1ccccc1)N1CCCCC1
inactive: SF-268 18.4 µM | SF-295 83 µM | SK-MEL-28 14.8 µM | MOLT-4 19 µM | SK-MEL-5 16.1 µM | OVCAR-5 17.6 µM | COLO 205 15.2 µM | KM12 16.5 µM | CAKI-1 47.6 µM | UACC-257 14.7 µM | K562 28.4 µM | SNB-19 86.9 µM | RPMI-8226 22.3 µM | OVCAR-4 19.1 µM | SR 18.6 µM

Cn1c(=O)c(C(c2ccccc2)c2c(O)c3ccccc3n(C)c2=O)c(O)c2ccccc21
inactive: SF-268 > 100 µM | SF-295 > 100 µM | SK-MEL-28 > 100 µM | EKVX > 100 µM | MOLT-4 45.3 µM | SK-MEL-5 > 100 µM | OVCAR-5 23.2 µM | HCC 2998 > 100 µM | COLO 205 > 100 µM | KM12 > 100 µM | CAKI-1 > 100 µM | UACC-257 > 100 µM | K562 > 100 µM | SNB-19 > 100 µM | RPMI-8226 > 100 µM | OVCAR-4 53.6 µM | SR 45.5 µM
